Experimental data reported in patent US20210047290A1, “SPIRO COMPOUND AS INDOLEAMINE-2,3-DIOXYGENASE INHIBITOR” (SHANGHAI INSTITUTE OF ORGANIC CHEMISTRY, CHINESE ACADEMY OF …, priority 2018, published 2021).

Assays:
[1] = molecular target: T1, IDO enzyme (Homo sapiens, UniProt P14902); assay: IDO enzyme inhibitory activity test; type: biochemical; conditions: recombinant IDO, D-Trp substrate, reading at 321 nm for 40 min
T1 construct: made in house; host or cells: E. coli BL21 (pET28a-IDO plasmid)
Method: (1) Induced Expression and Purification Method of IDO Protein
Firstly, DO gene was amplified with PCR, and the amplified PCR product was recycled. Digestion (2 h under 37° C.), gel running and recycling were carried out on the pET28a plasmid (purchased from Shanghai Baomanbio Co., Ltd.) and IDO gel with two restriction enzymes (EcoR I and Xho I). T4 ligase was connected with the product overnight, added into DH5α competence, placed on the ice for 30 min and subjected to thermal shock at 42° C. for 90 s.
BL21 which contained pET28a-IDO plasmid was shaken vigorously at 37° C. till OD600 was 0.6-0.8, added into hemin (final concentration: 40 μM) and 0.5 mM IPTG (isopropyl-3-D-IPTG) and induced under 16° C. for 20 h; after induction, thallus were collected centrifugally at 4° C. and 6,000 rpm, washed with 50 mM PBS (pH 7.5) and collected again centrifugally.
The collected thallus were suspended again with buffer solution (50 mM PBS pH 7.5). An appropriate amount of 100×PMSF was added. The thallus were disrupted with cell disruption instrument (1,400 bar) at 4° C. for three times. The split bacteria were centrifuged at 18,000×g for 45 min. The sediment was removed but supernatant was retained and filtered with a 0.45 μm film at 4° C.; the nickel column was balanced with lysis buffer (50 mM PBS pH7.5) by 3 column volumes.
The supernatant was loaded on the nickel column and washed with wash solution (50 mM PBS pH7.5, 50 mM imidazole) by 4 column volume. Finally, protein was eluted with eluant (50 mM PBS pH7.5, 250 mM imidazole); dialyzed for 6 h with dialysis solution (50 mM PBS pH7.5), concentrated, sub-packaged, quickly frozen with liquid nitrogen and stored at −80° C. for backup.
(2) Test Method for IDO Enzyme Inhibitory Activity
Firstly, the compound was diluted by triple gradient. 1 μL of each concentration was added into a 96-well plate; 50 μL of IDO Enzyme solution PBS (pH 7.5; final concentration: 50 mM) was added: 25 μL of substrate 1 (methylene blue, final concentration: […]; catalase, final concentration: 0.2 μg/L; PBS (pH 7.5; final concentration: 50 mM) mixture and 25 μL of substrate 2 (D-Trp, final concentration: 1.5 mM; sodium ascorbate, final concentration: 20 mM; PBS (pH 7.5), final concentration 50 mM) mixture were added for starting the reaction. Finally, OOD321 nm reading was carried out for 40 min.

[2] = molecular target: T2, IDO in Hela cells (Homo sapiens, UniProt P14902); assay: Test of cellular activity (kynurenine formation in interferon γ stimulated Hela cells); type: cell-based; conditions: head prints IPS cells, method: Hela cells, 48 h incubation, read at 480 nm
T2 construct: endogenous in cells; host or cells: HeLa cells stimulated with human interferon γ
Method: (3) Test Method of Cellular Activity
Hela cells (80 μL) was inoculated on a 96-well plate (5×10^3 for each well) to grow overnight. After the compound was diluted the next day, 1 μL of diluent and 100 μL of culture medium which contains human interferon γ (final concentration: 50 ng/m) were added into the 96-well plate to make the final volume reach […]. After incubating for 48 h, 80 μL of supernate was transferred from each well to a new […]. 10 μL 6.1N trichloroacetic acid was added into each well for mixing and incubation at 50° C. for 30 min, and […] N formyl-kynurenin into kynurenine. The reaction mixture was centrifuged at 2,500 rpm for 10 min, 70 μL of supernatant of each well was transferred to a new 96-well plate and mixed with 100 μL of 2% (w/v) dimethylaminobenzaldehyde acetic acid solution. After placing for 5-10 min, measurement was carried out at 480 nm with the SPECTRAmax i13 reader.

T1 sequence (P14902 whole entry): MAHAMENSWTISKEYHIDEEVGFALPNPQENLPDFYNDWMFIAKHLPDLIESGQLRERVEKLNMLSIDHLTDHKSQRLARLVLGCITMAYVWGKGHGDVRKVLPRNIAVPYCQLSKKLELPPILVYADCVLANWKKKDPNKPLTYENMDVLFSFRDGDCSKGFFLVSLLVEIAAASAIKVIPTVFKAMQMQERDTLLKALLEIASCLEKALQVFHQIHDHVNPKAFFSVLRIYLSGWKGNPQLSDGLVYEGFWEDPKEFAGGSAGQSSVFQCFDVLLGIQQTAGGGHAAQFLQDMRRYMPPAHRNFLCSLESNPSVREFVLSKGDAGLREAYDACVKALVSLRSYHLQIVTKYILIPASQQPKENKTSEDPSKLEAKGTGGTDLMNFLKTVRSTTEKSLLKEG
T2 sequence (P14902 whole entry): as above

Row | Structure (SMILES) | IC50 [1] | IC50 [2]
1 | O=C(Nc1ccc(Cl)cc1)C1CC2(C1)CC(c1ccnc3ccccc13)C2 (racemic) [Example 1, (±)-N-(4-chlorophenyl)-6-(quinolin-4-yl)spiro[3.3]heptane-2-carboxamide] | 1100 nM | > 50 nM
2 | O=C(Nc1ccc(Cl)cc1)C1CC12CCC(c1ccnc3ccccc13)CC2 (racemic) [Example 2A, (±)-(cis/trans)-N-(4-chlorophenyl)-6-(quinolin-4-yl)spiro[2.5]octane-1-carboxamide] | 1300 nM | > 50 nM
3 | O=C(Nc1ccc(Cl)cc1)C1CC2(C1)CC(c1ccnc3ccc(F)cc13)C2 (racemic) [Example 3, (±) N-(4-chlorophenyl)-6-(6-fluoroquinolin-4-yl)spiro[3.3]heptane-2-carboxamide] | 630 nM | > 3 nM
4 | O=C(Nc1ccc(Cl)cc1)C1CC12CCC(c1ccnc3ccc(F)cc13)CC2 (racemic) [Example 4, (±)-(cis/trans)-N-(4-chlorophenyl)-6-(6-fluoroquinolin-4-yl)spiro[2.5]octane-1-carboxamide] | 160 nM | 22 nM
5 | O=C(Nc1ccc(F)cc1)C1CC12CCC(c1ccnc3ccc(F)cc13)CC2 (racemic) [Example 5, (±)-(cis/trans)-N-(4-fluorophenyl)-6-(6-fluoroquinolin-4-yl)spiro[2.5]octane-1-carboxamide] | 330 nM | > 3 nM
6 | O=C(Nc1ccc(C(F)(F)F)cc1)C1CC12CCC(c1ccnc3ccc(F)cc13)CC2 (racemic) [Example 6, (±)-(cis/trans)-6-(6-fluoroquinolin-4-yl)-N-(4-trifluoromethyl)phenyl)spiro[2.5]octane-1-carboxamide] | 470 nM | > 4 nM
7 | O=C(Nc1ccccc1)C1CC12CCC(c1ccnc3ccc(F)cc13)CC2 (racemic) [Example 7, (±)-(cis/trans)-6-(6-fluoroquinolin-4-yl)-N-phenylspiro[2.5]octane-1-carboxamide] | 990 nM | –
8 | O=C(NC1CC12CCC(c1ccnc3ccc(F)cc13)CC2)c1ccc(Cl)cc1 (racemic) [Example 8, (±)-(cis/trans)-4-chloro-N-(6-(6-fluoroquinolin-4-yl)spiro[2.5]octan-1-yl)benzamide] | 990 nM | > 30 nM
9 | O=C(Nc1ccc(Cl)cc1)NC1CC12CCC(c1ccnc3ccc(F)cc13)CC2 (racemic) [Example 9, (±)-(cis/trans)-1-(4-chlorophenyl)-3-(6-(6-fluoroquinolin-4-yl)spiro[2.5]octan-1-yl)urea] | 3000 nM | –
10 | O=C(Nc1ccc(Cl)cc1)NC1CCC12CCC(c1ccnc3ccc(F)cc13)CC2 (racemic) [Example 11A, (±) 1-(4-chlorophenyl)-3-(7-(6-fluoroquinolin-4-yl)spiro[3.5]nonan-1-yl)urea] | 6900 nM | –
11 | O=C(Nc1ccc(Cl)cc1)NC1CCC12CCC(c1ccnc3ccc(F)cc13)CC2 (racemic) [Example 11B, (±) 1-(4-chlorophenyl)-3-(7-(6-fluoroquinolin-4-yl)spiro[3.5]nonan-1-yl)urea] | 2700 nM | –
12 | O=C(NC1CCC12CCC(c1ccnc3ccc(F)cc13)CC2)c1ccc(Cl)cc1 (racemic) [Example 12A, (±) 4-chloro-N-(7-(6-fluoroquinolin-4-yl)spiro[35]nonan-1-yl)benzamide] | 1200 nM | –
13 | O=C(NC1CCC12CCC(c1ccnc3ccc(F)cc13)CC2)c1ccc(Cl)cc1 (racemic) [Example 12B, (±) 4-chloro-N-(7-(6-fluoroquinolin-4-yl)spiro[3.5]nonan-1-yl)benzamide] | 1180 nM | > 30 nM
14 | O=C(Nc1cccc(Br)c1)C1CCC12CCC(c1ccnc3ccc(F)cc13)CC2 (racemic) [Example 14A, (±)-N-(3-bromophenyl)-7-(6-fluoroquinolin-4-yl)spiro[3.5]nonane-1-carboxamide] | 7600 nM | –
15 | O=C(Nc1cccc(Br)c1)C1CCC12CCC(c1ccnc3ccc(F)cc13)CC2 (racemic) [Example 14B, (±)-N-(3-bromophenyl)-7-(6-fluoroquinolin-4-yl)spiro[3.5]nonane-1-carboxamide] | 7000 nM | –
16 | O=C(Nc1ccc(Cl)cc1)NC1CC2(CCC(c3ccnc4ccc(F)cc34)CC2)C1 (racemic) [Example 16, (±) 1-(4-chlorophenyl)-3-(7-(6-fluoroquinolin-4-yl)spiro[3.5]nonan-2-yl)urea] | 3200 nM | –
17 | O=C(NC1CC2(CCC(c3ccnc4ccc(F)cc34)CC2)C1)c1ccc(Cl)cc1 (racemic) [Example 17, (±) 4-chloro-N-(7-(6-fluoroquinolin-yl)spiro[3.5]nonan-2-yl)benzamide] | 480 nM | –
18 | O=C(Nc1ccc(Br)cc1)C1CC2(CCC(c3ccnc4ccc(F)cc34)CC2)C1 (racemic) [Example 18, (±) N-(4-bromophenyl)-7-(6-fluoroquinoline-4-yl)spiro[3.5]nonane-2-carboxamide] | 200 nM | 2.52 nM
19 | O=C(Nc1ccc(F)cc1)C1CC2(CCC(c3ccnc4ccc(F)cc34)CC2)C1 (racemic) [Example 19, (±) N-(4-fluorophenyl)-7-(6-fluoroquinolin-4-yl)spiro[3.5]nonane-2-carboxamide] | 400 nM | 3.36 nM
20 | O=C(NC1CC2(CCC(c3ccnc4ccc(F)cc34)CC2)C1)c1ccc(Br)cc1 (racemic) [Example 20, (±) 4-bromo-N-(7-(6-fluoroquinolin-4-yl)spiro[3.5]nonan-2-yl)benzamide] | 2420 nM | > 10 nM
21 | O=C(NC1CC2(CCC(c3ccnc4ccc(F)cc34)CC2)C1)c1ccc(F)cc1 (racemic) [Example 21, (±) 4-fluoro-N-(7-(6-fluoroquinolin-4-yl)spiro[3.5]nonan-2-yl)benzamide] | 480 nM | > 10 nM
22 | O=C(Nc1ccc(Cl)cc1)C1CCC12CCC(c1ccnc3ccc(F)cc13)CC2 (single isomer, unassigned) [Example 10A, (±) N-(4-chlorophenyl)-7-(6-fluoroquinolin-4-yl)spiro[3.5]nonane-1-carboxamide] | 520 nM | > 3 nM
23 | O=C(Nc1ccc(Cl)cc1)C1CCC12CCC(c1ccnc3ccc(F)cc13)CC2 (single isomer, unassigned) [Example 10B, (±) N-(4-chlorophenyl)-7-(6-fluoroquinolin-4-yl)spiro[3.5]nonane-1-carboxamide] | 2100 nM | –
24 | O=S(=O)(NC1CCC12CCC(c1ccnc3ccc(F)cc13)CC2)c1ccc(Cl)cc1 (single isomer, unassigned) [Example 13A, (±) 4-chloro-N-(7-(6-fluoroquinolin-4-yl)spiro[3.5]nonan-1-yl)benzenesulfonamide] | 20000 nM | –
25 | O=S(=O)(NC1CCC12CCC(c1ccnc3ccc(F)cc13)CC2)c1ccc(Cl)cc1 (single isomer, unassigned) [Example 13B, (±) 4-chloro-N-(7-(6-fluoroquinolin-4-ylspiro[3.5]nonan-1-yl)benzenesulfonamide] | 157000 nM | –
26 | O=C(Nc1ccc(Cl)cc1)C1CC2(CCC(c3ccnc4ccc(F)cc34)CC2)C1 (single isomer, unassigned) [Example 15A, N-(4-chlorophenyl)-7-(6-fluoroquinolin-4-yl)spiro[3.5]nonane-2-carboxamide] | 3660 nM | > 10 nM
27 | O=C(Nc1ccc(Cl)cc1)C1CCC2(CC1)CC(c1ccnc3ccc(F)cc13)C2 (single isomer, unassigned) [Example 22A, N-(4-chlorophenyl)-2-(6-fluoroquinoline-4-yl)spiro[3.5]nonane-7-carboxamide] | 4160 nM | –
28 | O=C(Nc1ccc(Cl)cc1)C1CCC2(CC1)CC(c1ccnc3ccc(F)cc13)C2 (single isomer, unassigned) [Example 22B, N-(4-chlorophenyl)-2-(6-fluoroquinoline-4-yl)spiro[3.5]nonane-7-carboxamide] | 3440 nM | –
